Results on four compounds are retold here after ChEMBL document CHEMBL1201862, “PubChem BioAssay data set” (2004).

Among the test systems are COLO 205; UACC-257; SR; HL-60; MOLT-4; M14; NCI-H522; ACHN; OVCAR-8; BT-549; NCI/ADR-RES; U-251; NCI-H23; SW-620; SK-MEL-2; OVCAR-4; LOX IMVI; RXF 393; HOP-92; RPMI-8226.
What all share (experiment): NCI-60 cell line screen, 48 h

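Protocol summary: plate cells (96-well), add compound at 5 concentrations, incubate 48 h, interpolate endpoints linearly. GI50: concentration for 50% inhibition of growth.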 Activity calls are given as the source filed them. Rule as the data show it: active = GI50 up to about 1.1 µM and inactive = higher.

For the compound `CN(C)CCCNC(=O)N/N=C/c1ccc([N+](=O)[O-])cc1`, the GI50 in the experiment on COLO 205, in the experiment on UACC-257, with SR, in the experiment on HL-60, with MOLT-4 and with M14 was > 100 µM (inactive) each time. In addition, the GI50 with NCI-H522, in the experiment on ACHN, with OVCAR-8, with BT-549, in the experiment on NCI/ADR-RES and in the experiment with U-251 was > 100 µM (inactive) in each case. Besides, the GI50 in the experiment with NCI-H23, with SW-620 and in the experiment with SK-MEL-2 was > 100 µM (inactive) throughout.

For `CN(CCCNC(=O)c1nn(-c2ccc(Cl)cc2Cl)c2c1Cc1ccccc1-2)CCCNC(=O)c1nn(-c2ccc(Cl)cc2Cl)c2c1Cc1ccccc1-2`, the GI50 in the experiment with COLO 205 is 1.83 µM (inactive); in the experiment with UACC-257, 1.81 µM (inactive); with OVCAR-4, 0.285 µM (active); in the experiment on HL-60 it was 1.49 µM (inactive); in the experiment on MOLT-4, 1.32 µM (inactive); in the experiment on LOX IMVI, 1.67 µM (inactive). For the same compound, the GI50 in the experiment on M14 was 1.8 µM (inactive); in the experiment on NCI-H522, 1.43 µM (inactive); in the experiment with RXF 393 it was 1.77 µM (inactive); in the experiment with HOP-92 it was 1.61 µM (inactive); in the experiment on ACHN it was 1.67 µM (inactive); in the experiment with OVCAR-8, 1.81 µM (inactive). For the same compound, the GI50 with BT-549 was 2.03 µM (inactive); in the experiment with NCI/ADR-RES, 1.87 µM (inactive); in the experiment with RPMI-8226 it was 1.21 µM (inactive); in the experiment on U-251, 1.79 µM (inactive); in the experiment on NCI-H23, 2 µM (inactive); with SW-620, 1.48 µM (inactive). Further, in the experiment with SK-MEL-2, the GI50 is 1.92 µM (inactive).

Take `SC1=NNC2(C(S)=N1)c1ccccc1-c1ccccc12`: the GI50 with COLO 205, in the experiment with UACC-257, with SR, in the experiment on OVCAR-4, with HL-60 and in the experiment with MOLT-4 was > 10 µM (inactive) each time. For the same compound, the GI50 with LOX IMVI, in the experiment on M14, in the experiment with HOP-92, with OVCAR-8, with BT-549 and in the experiment with NCI/ADR-RES was > 10 µM (inactive) in each case. Further, the GI50 in the experiment with RPMI-8226, in the experiment on U-251, with NCI-H23 and in the experiment with SW-620 was > 10 µM (inactive) in each case.

Take `OC(C#Cc1ccccc1)(c1ccccc1)c1ccccc1`: the GI50 in the experiment on COLO 205 was 50.7 µM (inactive); in the experiment on UACC-257, 24.5 µM (inactive); with SR, 37.4 µM (inactive); in the experiment on OVCAR-4, 41.8 µM (inactive); in the experiment with HL-60, 38.6 µM (inactive); in the experiment with MOLT-4, 47.6 µM (inactive). Further, the GI50 in the experiment with LOX IMVI was 19 µM (inactive); in the experiment with M14, > 100 µM (inactive); in the experiment on NCI-H522, 30.9 µM (inactive); with ACHN it was 39 µM (inactive); in the experiment on OVCAR-8 it was 63.5 µM (inactive); in the experiment on BT-549, 51.1 µM (inactive). The GI50 in the experiment on NCI/ADR-RES was 36.6 µM (inactive); with RPMI-8226, 16.4 µM (inactive); with U-251 it was 26.7 µM (inactive); with NCI-H23 it was 53.5 µM (inactive); with SW-620, 28.4 µM (inactive); with SK-MEL-2, 23.8 µM (inactive).
